Data published in ChEMBL document CHEMBL1201862, “PubChem BioAssay data set” (2004).
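Dose response: 5 concentrations. Exposure: 48 h. Format: 96-well plates. Endpoint: linear interpolation; highest concentration if not reached. Abbreviation: GI50, concentration required for 50% inhibition of growth.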 The source made the active and inactive calls. Rule as the data show it: active = GI50 up to about 1.1 µM and inactive = higher.

Experiments:
Assay in all cases: NCI-60 cell line screen, 48 h
[1] = system: A549
[2] = system: ACHN
[3] = system: CCRF-CEM
[4] = system: COLO 205
[5] = system: HCT-116
[6] = system: HOP-62
[7] = system: HT-29
[8] = system: K562
[9] = system: LOX IMVI
[10] = system: M14
[11] = system: MCF7
[12] = system: NCI-H226
[13] = system: NCI/ADR-RES
[14] = system: RPMI-8226
[15] = system: RXF 393
[16] = system: SF-268
[17] = system: SF-295
[18] = system: SNB-75
[19] = system: SW-620
[20] = system: TK-10

Row | Structure (SMILES) | GI50 [1] | GI50 [2] | GI50 [3] | GI50 [4] | GI50 [5] | GI50 [6] | GI50 [7] | GI50 [8] | GI50 [9] | GI50 [10] | GI50 [11] | GI50 [12] | GI50 [13] | GI50 [14] | GI50 [15] | GI50 [16] | GI50 [17] | GI50 [18] | GI50 [19] | GI50 [20]
1 | COc1ccc(N2N=NN(C(C)C)/C2=C(/Cl)c2nnnn2-c2ccc(OC)cc2)cc1 | 17.8 µM (inactive) | 16.6 µM (inactive) | 1.83 µM (inactive) | 3.72 µM (inactive) | 5 µM (inactive) | 21 µM (inactive) | 10.2 µM (inactive) | 3.9 µM (inactive) | 2 µM (inactive) | 8.81 µM (inactive) | 9.46 µM (inactive) | 20.2 µM (inactive) | 27.7 µM (inactive) | 8.99 µM (inactive) | 13.8 µM (inactive) | 16.2 µM (inactive) | 16.6 µM (inactive) | 13 µM (inactive) | 1.82 µM (inactive) | 16.2 µM (inactive)
2 | Clc1ccc2c(NCCCC/N=C/c3ccccc3)ccnc2c1 | 13.4 µM (inactive) | 12.5 µM (inactive) | 6.49 µM (inactive) | 4.53 µM (inactive) | 6.24 µM (inactive) | 10 µM (inactive) | 5.18 µM (inactive) | 5.01 µM (inactive) | 13.5 µM (inactive) | 14.4 µM (inactive) | 11.1 µM (inactive) | 4.33 µM (inactive) | 20.7 µM (inactive) | 18.1 µM (inactive) | 4.09 µM (inactive) | 14.2 µM (inactive) | 10.4 µM (inactive) | 11.1 µM (inactive) | 5.78 µM (inactive) | 18.6 µM (inactive)
3 | COC(=O)c1cc2cc3c(c(O)c2c(=O)o1)O[C@@]1(Oc2c(O)c4c(c(O)c2[C@H]1OC1CC(OC)C(O)C(C)O1)C(=O)C=C(OC)C4=O)[C@H](O)C3 (stereo not given in full) | 1.05 µM (active) | 0.855 µM (active) | 0.889 µM (active) | 1.51 µM (inactive) | 0.735 µM (active) | 1.14 µM (inactive) | 1.14 µM (inactive) | 0.841 µM (active) | 0.492 µM (active) | 1.17 µM (inactive) | 1.14 µM (inactive) | 1.32 µM (inactive) | 4.62 µM (inactive) | 0.547 µM (active) | 0.726 µM (active) | 0.986 µM (active) | 0.724 µM (active) | 0.652 µM (active) | 1.07 µM (active) | 2.07 µM (inactive)
4 | CCOC(=O)C1(C(=O)OCC)C[C@@H](C)[C@@H](O)C1 | > 100 µM (inactive) | > 100 µM (inactive) | > 100 µM (inactive) | > 100 µM (inactive) | > 100 µM (inactive) | > 100 µM (inactive) | > 100 µM (inactive) | > 100 µM (inactive) | > 100 µM (inactive) | > 100 µM (inactive) | > 100 µM (inactive) | > 100 µM (inactive) | > 100 µM (inactive) | > 100 µM (inactive) | > 100 µM (inactive) | > 100 µM (inactive) | > 100 µM (inactive) | 75.7 µM (inactive) | > 100 µM (inactive) | > 100 µM (inactive)
5 | N#CC1C(=O)SC2c3ccccc3C(=O)c3ccccc3C12 (stereo not given) | > 10 µM (inactive) | > 10 µM (inactive) | > 10 µM (inactive) | > 10 µM (inactive) | > 10 µM (inactive) | > 10 µM (inactive) | > 10 µM (inactive) | > 10 µM (inactive) | > 10 µM (inactive) | > 10 µM (inactive) | > 10 µM (inactive) | > 10 µM (inactive) | > 10 µM (inactive) | > 10 µM (inactive) | > 10 µM (inactive) | > 10 µM (inactive) | > 10 µM (inactive) | 3.26 µM (inactive) | > 10 µM (inactive) | > 10 µM (inactive)
